Reference: US12077503B2, “Substituted cyclic amides and their use as herbicides” (FMC CORPORATION, priority 2015, dated 2024)

Legend:
Assay type in all cases: in vivo
[1] = tested on: blackgrass (Alopecurus myosuroides); experiment: Test A postemergence; conditions: Alopecurus myosuroides, post-emergence, 240 h, postemergence, approx. 10 d
Procedure, shortened: (§1)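 Ratings of 0 (no effect) to 100 (complete control) come from visual comparison with untreated controls roughly 10 d after treatment. Test chemicals, formulated in a non-phytotoxic solvent mixture with surfactant, were applied either as a preemergence directed soil spray on seeded soil or postemergence to one- to two-leaf plants 2 to 10 cm tall.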

[2] = tested on: ryegrass, Italian (Italian ryegrass, Lolium multiflorum); experiment: Test A postemergence; conditions: Lolium multiflorum, post-emergence, 240 h, 125 g ai/ha, postemergence; visual injury on 0 to 100 scale (0 no effect, 100 complete control), approx. 10 d; read-out: Ryegrass, Italian plant response rating
Procedure, shortened: as §1

corn (Zea mays) = experiment: Test A postemergence; conditions: Zea mays, post-emergence, 240 h, postemergence, approx. 10 d
Procedure, shortened: as §1

[3] = tested on: giant foxtail (Setaria faberii); experiment: Test A postemergence; conditions: Setaria faberi, post-emergence, 240 h, postemergence, approx. 10 d
Procedure, shortened: as §1

[4] = tested on: Galium (catchweed bedstraw, Galium aparine); experiment: Test A postemergence; conditions: Galium, post-emergence, 240 h, postemergence, approx. 10 d
Procedure, shortened: as §1

Kochia (Kochia scoparia) [5] = experiment: Test A postemergence; conditions: Bassia scoparia, post-emergence, 240 h, postemergence, approx. 10 d
Procedure, shortened: as §1

[6] = tested on: ragweed (common ragweed, Ambrosia elatior); experiment: Test A postemergence; conditions: Ambrosia artemisiifolia, post-emergence, 240 h, 125 g ai/ha, postemergence; visual injury on 0 to 100 scale (0 no effect, 100 complete control), approx. 10 d; read-out: Ragweed plant response rating
Procedure, shortened: as §1

[7] = tested on: wheat (Triticum aestivum); experiment: Test A postemergence; conditions: Triticum aestivum, post-emergence, 240 h, 125 g ai/ha, postemergence; visual injury on 0 to 100 scale (0 no effect, 100 complete control), approx. 10 d; read-out: Wheat plant response rating
Procedure, shortened: as §1

[8] = tested on: barnyardgrass (Echinochloa crus-galli); experiment: Test A postemergence; conditions: Echinochloa crus-galli, post-emergence, 240 h, postemergence, approx. 10 d
Procedure, shortened: as §1

[9] = tested on: pigweed (Amaranthus retroflexus); experiment: Test A postemergence; conditions: Amaranthus retroflexus, post-emergence, 240 h, 125 g ai/ha, postemergence; visual injury on 0 to 100 scale (0 no effect, 100 complete control), approx. 10 d; read-out: Pigweed plant response rating
Procedure, shortened: as §1

[10] = tested on: ryegrass, Italian (Italian ryegrass, Lolium multiflorum); experiment: Test A preemergence; conditions: Lolium multiflorum, pre-emergence, 240 h
Procedure, shortened: as §1

[11] = tested on: giant foxtail (Setaria faberii); experiment: Test A preemergence; conditions: Setaria faberi, pre-emergence, 240 h
Procedure, shortened: as §1

Kochia (Kochia scoparia) [12] = experiment: Test A preemergence; conditions: Bassia scoparia, pre-emergence, 240 h
Procedure, shortened: as §1

[13] = tested on: ragweed (common ragweed, Ambrosia elatior); experiment: Test A preemergence; conditions: Ambrosia artemisiifolia, pre-emergence, 240 h
Procedure, shortened: as §1

[14] = tested on: barnyardgrass (Echinochloa crus-galli); experiment: Test A preemergence; conditions: Echinochloa crus-galli, pre-emergence, 240 h
Procedure, shortened: as §1

[15] = tested on: pigweed (Amaranthus retroflexus); experiment: Test A preemergence; conditions: Amaranthus retroflexus, pre-emergence, 240 h

Structure (SMILES): Cc1cc([C@H]2CNC(=O)[C@@H]2C(=O)Nc2ccc(F)cc2F)ccc1C(F)(F)F [Compound 1043]
- pest or weed control at 125 g/ha ([1]; 125 g ai/ha, visual injury on 0 to 100 scale (0 no effect, 100 complete control), read-out: Blackgrass plant response rating): 20%
- pest or weed control at 500 g/ha ([1]; 500 g ai/ha, visual injury, 0 to 100 scale (0 no effect, 100 complete control), read-out: Plant response rating, Blackgrass): 30%
- pest or weed control at 125 g/ha [2]: 0%
- plant injury at 125 g/ha (corn (Zea mays); 125 g ai/ha, visual injury on 0 to 100 scale (0 no effect, 100 complete control), read-out: Corn plant response rating): 20%
- Corn plant response rating (crop injury, 0 = no effect, 100 = complete kill) at 500 g/ha (corn (Zea mays); 500 g ai/ha, visual injury, 0 to 100 scale (0 no effect, 100 complete control)): 60%
- pest or weed control at 125 g/ha ([3]; 125 g ai/ha, visual injury on 0 to 100 scale (0 no effect, 100 complete control), read-out: Foxtail, Giant plant response rating): 70%
- pest or weed control at 500 g/ha ([3]; 500 g ai/ha, visual injury, 0 to 100 scale (0 no effect, 100 complete control), read-out: Plant response rating, Foxtail, Giant): 80%
- pest or weed control at 125 g/ha ([4]; 125 g ai/ha, visual injury on 0 to 100 scale (0 no effect, 100 complete control), read-out: Galium plant response rating): 20%
- pest or weed control at 500 g/ha ([4]; 500 g ai/ha, visual injury, 0 to 100 scale (0 no effect, 100 complete control), read-out: Plant response rating, Galium): 40%
- pest or weed control at 125 g/ha (Kochia (Kochia scoparia) [5]; 125 g ai/ha, visual injury on 0 to 100 scale (0 no effect, 100 complete control), read-out: Kochia plant response rating): 0%
- pest or weed control at 500 g/ha (Kochia (Kochia scoparia) [5]; 500 g ai/ha, visual injury, 0 to 100 scale (0 no effect, 100 complete control), read-out: Plant response rating, Kochia): 40%
- pest or weed control at 125 g/ha [6]: 0%
- plant injury at 125 g/ha [7]: 0%
- pest or weed control at 125 g/ha ([8]; 125 g ai/ha, visual injury on 0 to 100 scale (0 no effect, 100 complete control), read-out: Barnyardgrass plant response rating): 50%
- pest or weed control at 500 g/ha ([8]; 500 g ai/ha, visual injury, 0 to 100 scale (0 no effect, 100 complete control), read-out: Plant response rating, Barnyardgrass): 80%
- pest or weed control at 125 g/ha [9]: 0%
- pest or weed control at 125 g/ha ([10]; 125 g ai/ha, Preemergence, visual injury rating after approximately 10 d, read-out: Ryegrass, Italian plant response rating (0 to 100 scale, 0 is no effect, 100 is complete control)): 20%
- pest or weed control at 500 g/ha ([10]; 500 g ai/ha, preemergence, visual injury rating about 10 d after treatment, 0 to 100 scale (0 no effect, 100 complete control), read-out: Ryegrass, Italian plant response rating): 50%
- pest or weed control at 125 g/ha ([11]; 125 g ai/ha, Preemergence, visual injury rating after approximately 10 d, read-out: Foxtail, Giant plant response rating (0 to 100 scale, 0 is no effect, 100 is complete control)): 70%
- pest or weed control at 500 g/ha ([11]; 500 g ai/ha, preemergence, visual injury rating about 10 d after treatment, 0 to 100 scale (0 no effect, 100 complete control), read-out: Foxtail, Giant plant response rating): 90%
- pest or weed control at 125 g/ha (Kochia (Kochia scoparia) [12]; 125 g ai/ha, Preemergence, visual injury rating after approximately 10 d, read-out: Kochia plant response rating (0 to 100 scale, 0 is no effect, 100 is complete control)): 60%
- pest or weed control at 500 g/ha (Kochia (Kochia scoparia) [12]; 500 g ai/ha, preemergence, visual injury rating about 10 d after treatment, 0 to 100 scale (0 no effect, 100 complete control), read-out: Kochia plant response rating): 70%
- pest or weed control at 125 g/ha ([13]; 125 g ai/ha, Preemergence, visual injury rating after approximately 10 d, read-out: Ragweed plant response rating (0 to 100 scale, 0 is no effect, 100 is complete control)): 0%
- pest or weed control at 500 g/ha ([13]; 500 g ai/ha, preemergence, visual injury rating about 10 d after treatment, 0 to 100 scale (0 no effect, 100 complete control), read-out: Ragweed plant response rating): 50%
- pest or weed control at 125 g/ha ([14]; 125 g ai/ha, Preemergence, visual injury rating after approximately 10 d, read-out: Barnyardgrass plant response rating (0 to 100 scale, 0 is no effect, 100 is complete control)): 80%
- pest or weed control at 500 g/ha ([14]; 500 g ai/ha, preemergence, visual injury rating about 10 d after treatment, 0 to 100 scale (0 no effect, 100 complete control), read-out: Barnyardgrass plant response rating): 90%
- pest or weed control at 125 g/ha ([15]; 125 g ai/ha, Preemergence, visual injury rating after approximately 10 d, read-out: Pigweed plant response rating (0 to 100 scale, 0 is no effect, 100 is complete control)): 0%
- pest or weed control at 500 g/ha ([15]; 500 g ai/ha, preemergence, visual injury rating about 10 d after treatment, 0 to 100 scale (0 no effect, 100 complete control), read-out: Pigweed plant response rating): 20%
